The values below come from US20260116921A1, “PEPTIDE INHIBITORS OF INTERLEUKIN-23 RECEPTOR AND THEIR USE TO TREAT INFLAMMATORY DISEASES” (priority 2018, published 2026).

Bridge positions count the residues as written; N and C are the ends. Square brackets hold non-standard residues; d marks the D form. Peptide text beside a SMILES is read from it. Trp(7-Me) = Cc1cccc2c(C[C@H](N)C(=O)O)c[nH]c12; 2Nal = N[C@@H](Cc1ccc2ccccc2c1)C(=O)O; AEF = NCCOc1ccc(C[C@H](N)C(=O)O)cc1; Cit = NC(=O)NCCC[C@H](N)C(=O)O; Pen = CC(C)(S)[C@H](N)C(=O)O; αMeK = C[C@](N)(CCCCN)C(=O)O; Aib = CC(C)(N)C(=O)O; βAla = NCCC(=O)O

For series [1] the following is noted: SD rat plasma, 37° C., 20 μM.
Series [2] deals with T1, IL-23R (Homo sapiens, UniProt Q5VWK5).
T1 sequence (Q5VWK5 24-629): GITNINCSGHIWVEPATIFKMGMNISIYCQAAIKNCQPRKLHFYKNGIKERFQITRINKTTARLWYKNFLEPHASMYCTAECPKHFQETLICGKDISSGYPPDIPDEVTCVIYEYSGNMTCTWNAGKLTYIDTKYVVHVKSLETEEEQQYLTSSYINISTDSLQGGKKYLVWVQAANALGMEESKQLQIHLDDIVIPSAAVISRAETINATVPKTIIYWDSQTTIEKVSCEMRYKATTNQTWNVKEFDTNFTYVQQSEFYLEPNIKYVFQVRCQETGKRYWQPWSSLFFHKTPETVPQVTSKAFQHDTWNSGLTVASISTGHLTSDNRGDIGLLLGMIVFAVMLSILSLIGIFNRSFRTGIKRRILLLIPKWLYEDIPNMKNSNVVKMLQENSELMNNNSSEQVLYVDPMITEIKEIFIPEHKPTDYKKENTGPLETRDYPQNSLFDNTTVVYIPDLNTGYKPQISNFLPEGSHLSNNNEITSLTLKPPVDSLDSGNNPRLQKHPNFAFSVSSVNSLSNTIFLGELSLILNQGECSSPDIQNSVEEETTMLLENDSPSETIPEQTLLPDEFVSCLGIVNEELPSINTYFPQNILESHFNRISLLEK
In words: DB cells IL23R pSTAT3 cell assay (pStat3 HTRF). Particulars: Table E3; DB cells, IL-23 0.5 nM, 30 minutes at 37° C.; read-out: pStat3 HTRF (IC50). Format: cell-based. The gist of the method: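 DB cells (5×10E5/well, RPMI-1640 + 10% FBS) stimulated with 0.5 nM final IL-23 plus serially diluted test peptides for 30 min at 37 °C, 5% CO2. Phospho-STAT3 (Tyr705) in lysates measured by HTRF using a two-plate protocol.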
In general terms: In TR-FRET formats the signal depends on donor and acceptor labels being close together.

For series [3] the following is noted: 20% human fecal homogenate, 37° C., 20 μM.
The conditions of series [4]: 20% cynomolgus monkey fecal homogenate, 37° C., 20 μM.
Procedure: Fecal homogenate (20%) was prepared by adding 4 mL of growth medium (1 liter contains 2 g peptone water powder, 2 g yeast extract, 0.1 g NaCl, 0.04 g KH2PO4, 0.01 g CaCl2·6H2O, 0.01 g MgSO4·7H2O, 2 mL Tween 80, 0.5 g bile salts, 0.5 g L-cysteine HCl, 2 g NaHCO3, and 10 μL Vitamin K, pH adjusted to 6.8, and sterilized by filtration through a 0.22 μm filter) to every gram of feces (pooled freshly collected human or cynomolgus monkey feces). The suspension was vortexed to break up large clumps, and homogenized using a bead mill homogenizer. Centrifuged the homogenate at 2800×g for 15 min. The supernatant is taken out and used for incubations. DMSO stocks (10 mM) were first prepared for the test compounds. Incubations were performed in an anaerobic chamber conditioned at 37° C. Aliquots of the DMSO solutions were dosed into 1.0 mL aliquots of 20% fecal homogenate, which are pre-warmed to 37° C. The final test compound concentration was 20 μM. At each timepoint (0, 20 min, 1, 3, 6, or 24 hours), 100 μL aliquot of each incubation mixture is taken out and added to separate tubes containing 300 μL of 50% acetonitrile/50% methanol and an internal standard to terminate the reaction. Samples were taken out of the anaerobic chamber and stored at 4° C. until the end of the experiment. After the final timepoint is sampled, the tubes were mixed and then centrifuged at 3,000 rpm for 10 minutes. Aliquots of the supernatant were removed, diluted 1:1 into distilled water containing 0.1% formic acid, and analyzed by LC/MS/MS. Percent remaining at each timepoint was calculated based on the peak area response ratio of test to compound to internal standard. Time 0 was set to 100%, and all later timepoints were calculated relative to time 0. Half-lives were calculated by fitting to a first-order exponential decay equation using Graphpad or Excel.
Series [5] is described as follows: in vitro. The format is in vitro ADME. On the set-up: half-life: dose or concentration left out as unconfirmed. As to conditions: pH 6.8, 37° C., § matrix is 100 fold dilution of standard SIF concentration; for SIF t½: simulated intestinal fluid, pancreatin.
Procedure: SIF was prepared by adding 6.8 g of monobasic potassium phosphate and 10.0 g of pancreatin to 1.0 L of water. After dissolution, the pH was adjusted to 6.8 using NaOH. DMSO stocks (2 mM) were first prepared for the test compounds. Aliquots of the DMSO solutions were dosed into 6 individual tubes, each containing 0.5 mL of SIF, which is pre-warmed to 37° C. The final test compound concentration was 20 M. The vials were kept in a benchtop Thermomixer® for the duration of the experiment. At each timepoint (0, 5, 10, 20, 40, 60, or 360 minutes or 24 hours), 1.0 mL of acetonitrile containing 1% formic acid was added to one vial to terminate the reaction. Samples were stored at 4° C. until the end of the experiment. After the final timepoint is sampled, the tubes were mixed and then centrifuged at 3,000 rpm for 10 minutes. Aliquots of the supernatant were removed, diluted 1:1 into distilled water containing internal standard, and analyzed by LCMS/MS. Percent remaining at each timepoint was calculated based on the peak area response ratio of test to compound to internal standard. Time 0 was set to 100%, and all later timepoints were calculated relative to time 0. Half-lives were calculated by fitting to a first-order exponential decay equation using Graphpad.
For series [6], the target named is T2, IL-23R (human, UniProt Q5VWK5 24-629).
T2 sequence (looked up): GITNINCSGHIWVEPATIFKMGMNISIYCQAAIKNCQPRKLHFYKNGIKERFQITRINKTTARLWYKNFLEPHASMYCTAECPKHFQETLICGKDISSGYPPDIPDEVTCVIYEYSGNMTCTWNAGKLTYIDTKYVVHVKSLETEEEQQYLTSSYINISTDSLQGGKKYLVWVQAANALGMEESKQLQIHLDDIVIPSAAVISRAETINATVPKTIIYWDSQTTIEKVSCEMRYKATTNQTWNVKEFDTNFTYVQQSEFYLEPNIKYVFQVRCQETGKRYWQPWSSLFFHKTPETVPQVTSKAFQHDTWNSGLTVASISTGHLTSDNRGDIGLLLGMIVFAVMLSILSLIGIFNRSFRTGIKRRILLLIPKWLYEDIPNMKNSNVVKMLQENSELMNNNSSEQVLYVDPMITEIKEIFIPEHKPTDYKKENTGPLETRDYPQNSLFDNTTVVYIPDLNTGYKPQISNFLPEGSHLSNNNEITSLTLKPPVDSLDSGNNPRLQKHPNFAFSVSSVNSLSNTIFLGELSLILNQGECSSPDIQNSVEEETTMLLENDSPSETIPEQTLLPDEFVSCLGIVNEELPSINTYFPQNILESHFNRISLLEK
In words: cell-based or functional assay.

Turning to `CC(=O)NCCCC[C@H](NC(=O)[C@](C)(CC(C)C)NC(=O)[C@H](Cc1ccc2ccccc2c1)NC(=O)[C@H](Cc1ccc(OCCN)cc1)NC(=O)[C@H]1NC(=O)[C@H](CCC(N)=O)NC(=O)[C@H](Cc2c[nH]c3c(C)cccc23)NC(=O)[C@H]([C@@H](C)O)NC(=O)[C@H](CC(N)=O)NC(=O)[C@@H](NC(C)=O)C(C)(C)SSC1(C)C)C(=O)N[C@@H](C(=O)NCCC(N)=O)[C@H](C)O` [compound 218], in series [1], the “t½: Rat Plasma EDTA” value was determined as 1 h.

In the case of `CC(=O)NCCCC[C@H](NC(=O)[C@](C)(CCCCN)NC(=O)[C@H](Cc1ccc2ccccc2c1)NC(=O)[C@H](Cc1ccc(OCCN)cc1)NC(=O)[C@H]1NC(=O)[C@H](CCC(N)=O)NC(=O)[C@H](Cc2c[nH]c3c(C)cccc23)NC(=O)[C@H]([C@@H](C)O)NC(=O)C(C)(C)NC(=O)[C@@H](NC(C)=O)C(C)(C)SSC1(C)C)C(=O)N[C@@H](CC(N)=O)C(=O)NCCC(N)=O` [compound 240] (Ac-[Pen][Aib]T[Trp(7-Me)]Q[Pen][AEF][2Nal][αMeK]K(Ac)N[βAla]-NH2; disulfide 1-6), in series [2], the IC50 (as a rule, the point on the concentration scale where inhibition reaches its midpoint) is 10 to 100 nM. Also, the “t½: Rat Plasma EDTA” value in series [1] turned out to be 8 h. The “t½: Human Feces anaerobic” value in series [3] worked out at 4 h. Moreover, in series [4], the “t½: Monkey Feces anaerobic” value was 3 h.

`CC(=O)NCCCC[C@H](NC(=O)[C@](C)(CCCCN)NC(=O)[C@H](Cc1ccc2ccccc2c1)NC(=O)[C@H](Cc1ccc(OCCN)cc1)NC(=O)[C@H]1NC(=O)[C@H](CCCCNC(=O)C(C)(C)N)NC(=O)[C@H](Cc2c[nH]c3c(C)cccc23)NC(=O)[C@H]([C@@H](C)O)NC(=O)[C@H](CC(N)=O)NC(=O)[C@@H](NC(C)=O)C(C)(C)SSC1(C)C)C(=O)N[C@@H](CC(N)=O)C(=O)N[C@H](CC(C)C)C(N)=O` [compound 322]: the “t½: Human Feces anaerobic” value in series [3] is >24 h. In series [4], the “t½: Monkey Feces anaerobic” value is >24 h. In series [5] (simulated intestinal fluid (SIF) with pancreatin, read-out: SIF t½ (converted)), the half-life was 1 h.

Consider `CC(=O)N[C@@H]1C(=O)N[C@@H](CC(N)=O)C(=O)N[C@@H]([C@@H](C)O)C(=O)N[C@@H](Cc2c[nH]c3c(C)cccc23)C(=O)N[C@@H](CCCNC(N)=O)C(=O)N[C@H](C(=O)N[C@@H](Cc2ccc(OCCN)cc2)C(=O)N[C@@H](Cc2ccc3ccccc3c2)C(=O)N[C@@](C)(CCCCN)C(=O)N[C@@H](CCCNC(N)=O)C(=O)NCCC(=O)NCCC(N)=O)C(C)(C)SSC1(C)C` [compound 281] (Ac-[Pen]NT[Trp(7-Me)][Cit][Pen][AEF][2Nal][αMeK][Cit][βAla][βAla]-NH2; disulfide 1-6), for which the IC50 in series [2] fell in the range of 10 to 100 nM. Further, the “t½: Rat Plasma EDTA” value in series [1] is >24 h. The “t½: Human Feces anaerobic” value in series [3] was >24 h. The “t½: Monkey Feces anaerobic” value in series [4] was >24 h. Further, the “SIF t½” value in series [5] was 14 h.

Consider `CC(=O)NCCCC[C@@H]1NC(=O)[C@H](Cc2c[nH]c3c(C)cccc23)NC(=O)[C@H]([C@@H](C)O)NC(=O)[C@H](CC(N)=O)NC(=O)[C@@H](NC(C)=O)C(C)(C)SSC(C)(C)[C@@H](C(=O)N[C@@H](Cc2ccc(OCCN)cc2)C(=O)N[C@@H](Cc2ccc3ccccc3c2)C(=O)N[C@@](C)(CCCCN)C(=O)N[C@@H](CCCCNC(C)=O)C(=O)N[C@@H](CC(N)=O)C(=O)N[C@H](Cc2ccccc2)C(N)=O)NC1=O` [compound 258], for which, in series [1], the “t½: Rat Plasma EDTA” value is >24 h. For the same molecule, the “t½: Human Feces anaerobic” value in series [3] is >24 h. The “t½: Monkey Feces anaerobic” value in series [4] is >24 h. In addition, in series [5], the “SIF t½” value was 14 h.

B1: SEQ ID NO: 28 (peptide)
peptide: XQTXQCXXXENN
modifications: Ac-[Abu]-QT-[W(7-Me)]-QC-[Phe[4-(2-aminoethoxy)]-[2-Nal]-[THP]-ENN-NH2; Abu-Cys thioether
Take B1: the “pStat3 HTRF (nM) IC50” value in series [6] was < 1 nM.

B2: SEQ ID NO: 27 (peptide)
peptide: RXQTXQCXXXENN
modifications: Ac-[(D)Arg]-[Abu]-QT-[W(7-Me)]-QC-[Phe[4-(2-aminoethoxy)]-[2-Nal]-[THP]-ENN-NH2; Abu-Cys thioether
Regarding B2, the “pStat3 HTRF (nM) IC50” value in series [6] was < 1 nM.

B3: SEQ ID NO: 29 (peptide)
peptide: RXQTXQCXXXKNN
modifications: Ac-[(D)Arg]-[Abu]-QT-[W(7-Me)]-QC-[Phe[4-(2-aminoethoxy)]-[2-Nal]-[THP]-[Lys(Ac)]-NN-NH2; Abu-Cys thioether
For B3, the “pStat3 HTRF (nM) IC50” value in series [6] is < 1 nM.
